The nature of this data set: Visual aqueous solubility. The conditions noted are these: water added in portions to ~10 mg, assessed visually after brief equilibration. Type of data set: physicochemical. Here is the method: The salts and free base (˜10 mg) were weighed into glass vials and water was added in 0.1 mL portions up to 3 mL and 1 mL portions thereafter. Solubility was assessed visually following a brief period of equilibration.

Where a name gives a salt, the structure may show the parent alone.

For the setting “listed as Free base”, `CC(=O)Nc1nnc(N2CCN([C@@H](C)c3ccc4c(c3)OCO4)CC2)s1` [Example 69, (S)—N-(5-(4-(1-(benzo[d][1,3]dioxol-5-yl)ethyl)piperazin-1-yl)-1,3,4-thiadiazol-2-yl)acetamide] yielded a Visual aqueous solubility of less than 500 µg/mL.
Take `CC(=O)Nc1nnc(N2CCN([C@@H](C)c3ccc4c(c3)OCO4)CC2)s1` [Hydrochloride salt, (S)—N-(5-(4-(1-(benzo[d][1,3]dioxol-5-yl)ethyl)piperazin-1-yl)-1,3,4-thiadiazol-2-yl)acetamide]: the Visual aqueous solubility is roughly 4500 µg/mL.
In turn, `CC(=O)Nc1nnc(N2CCN([C@@H](C)c3ccc4c(c3)OCO4)CC2)s1` [L-Tartrate salt, (S)—N-(5-(4-(1-(benzo[d][1,3]dioxol-5-yl)ethyl)piperazin-1-yl)-1,3,4-thiadiazol-2-yl)acetamide] showed a Visual aqueous solubility of roughly 20000 µg/mL.
In turn, `CC(=O)Nc1nnc(N2CCN([C@@H](C)c3ccc4c(c3)OCO4)CC2)s1` [Maleate salt, (S)—N-(5-(4-(1-(benzo[d][1,3]dioxol-5-yl)ethyl)piperazin-1-yl)-1,3,4-thiadiazol-2-yl)acetamide] had a Visual aqueous solubility of roughly 4500 µg/mL.

Source of the values: patent US12398130B2, “Acid addition salts of piperazine derivatives” (Asceneuron SA, priority 2016, dated 2025).
